This passage reports T/C results from PubChem BioAssay AID250 (DTP/NCI, 2004).

This assay deals with BDF1 mice, L1210 leukemia sc, survival T/C. Put plainly: NCI In Vivo Anticancer Drug Screen. Data for tumor model L1210 Leukemia (subcutaneous) in B6D2F1 (BDF1) mice. Conditions: higher = longer survival. In short, it runs like this:
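Expressed as T/C: measurement in compound-treated, tumor-bearing mice relative to vehicle-treated control mice, based on survival or tumor size.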

Where [1] appears, read: endpoint: median survival time, dose: 23.0 mg/kg/injection, schedule: Q01DX Z (sc), vehicle: water.
Where [2] appears, read: endpoint: median survival time, dose: 39.0 mg/kg/injection, schedule: Q01DX Z (sc), vehicle: water.

“And” between values parts separate entries of the source, which are not always exact repeats. Equal entries are not always repeated. Toxic doses and inconclusive results are not listed.

For the compound `O=C(Nc1ccc(C2=NCCN2)cc1)c1ccc(C(=O)Nc2ccc(C3=NCCN3)cc2)c([N+](=O)[O-])c1`, the T/C is 100 % of control (endpoint: median survival time, dose: 3.0 mg/kg/injection, schedule: Q01DX Z (sc), vehicle: saline); 109 % of control (endpoint: median survival time, dose: 5.0 mg/kg/injection, schedule: Q01DX Z (sc), vehicle: saline); 104 % of control and 109 % of control (endpoint: median survival time, dose: 8.4 mg/kg/injection, schedule: Q01DX Z (sc), vehicle: saline); 104 % of control (endpoint: median survival time, dose: 14.0 mg/kg/injection, schedule: Q01DX Z (sc), vehicle: saline); 100 % of control (endpoint: median survival time, dose: 23.0 mg/kg/injection, schedule: Q01DX Z (ip), vehicle: water); 118 % of control (endpoint: median survival time, dose: 23.0 mg/kg/injection, schedule: Q01DX Z (sc), vehicle: saline). The T/C under setting [1] was 100 % of control; the T/C (endpoint: median survival time, dose: 39.0 mg/kg/injection, schedule: Q01DX Z (ip), vehicle: water) is 160 % of control; the T/C under setting [2] was 115 % of control; the T/C (endpoint: median survival time, dose: 65.0 mg/kg/injection, schedule: Q01DX Z (ip), vehicle: water) was 180 % of control; the T/C (endpoint: median survival time, dose: 65.0 mg/kg/injection, schedule: Q01DX Z (sc), vehicle: saline) is 114 % of control and 209 % of control.

Take `CCOC(C)C(=O)C=O` (stereo unspecified): the T/C is 100 % of control under setting [1]; 100 % of control under setting [2]; 100 % of control (endpoint: median survival time, dose: 65.0 mg/kg/injection, schedule: Q01DX Z (sc), vehicle: water); 100 % of control (endpoint: median survival time, dose: 108.0 mg/kg/injection, schedule: Q01DX Z (sc), vehicle: water); 100 % of control (endpoint: median survival time, dose: 180.0 mg/kg/injection, schedule: Q01DX Z (sc), vehicle: water); 100 % of control (endpoint: median survival time, dose: 300.0 mg/kg/injection, schedule: Q01DX Z (sc), vehicle: water). Also, the T/C (endpoint: median survival time, dose: 500.0 mg/kg/injection, schedule: Q01DX Z (sc), vehicle: water) was 105 % of control.

In the case of `CCOC(=O)NP(=O)(N1CC1)N1CC1`, the T/C (endpoint: median survival time, dose: 5.0 mg/kg/injection, schedule: Q01DX Z (sc), vehicle: water) is 120 % of control; the T/C (endpoint: median survival time, dose: 14.0 mg/kg/injection, schedule: Q01DX Z (sc), vehicle: water) was 150 % of control; the T/C (endpoint: median survival time, dose: 23.0 mg/kg/injection, schedule: Q02DX Z (sc), vehicle: water) was 170 % of control; the T/C (endpoint: median survival time, dose: 23.0 mg/kg/injection, schedule: Q## X Z (sc), vehicle: water) is 165 % of control; the T/C (endpoint: median survival time, dose: 39.0 mg/kg/injection, schedule: Q01DX001 (sc), vehicle: water) is 160 % of control; the T/C (endpoint: median survival time, dose: 39.0 mg/kg/injection, schedule: Q07DX Z (sc), vehicle: water) is 150 % of control.

As for `CCC1=C(c2ccc(OC)cc2)CCC(C(=O)O)C1C` (stereo unspecified), the T/C by setting is: (endpoint: median survival time, dose: 14.0 mg/kg/injection, schedule: Q01DX Z (sc), vehicle: steriod suspending solution) 105 % of control; (endpoint: median survival time, dose: 23.0 mg/kg/injection, schedule: Q01DX Z (sc), vehicle: steriod suspending solution) 100 % of control; (endpoint: median survival time, dose: 39.0 mg/kg/injection, schedule: Q01DX Z (sc), vehicle: steriod suspending solution) 105 % of control; (endpoint: median survival time, dose: 65.0 mg/kg/injection, schedule: Q01DX Z (sc), vehicle: steriod suspending solution) 100 % of control; (endpoint: median survival time, dose: 108.0 mg/kg/injection, schedule: Q01DX Z (sc), vehicle: steriod suspending solution) 100 % of control and 111 % of control; (endpoint: median survival time, dose: 180.0 mg/kg/injection, schedule: Q01DX Z (sc), vehicle: steriod suspending solution) 100 % of control and 105 % of control. In addition, the T/C (endpoint: median survival time, dose: 300.0 mg/kg/injection, schedule: Q01DX Z (sc), vehicle: steriod suspending solution) was 100 % of control and 111 % of control; the T/C (endpoint: median survival time, dose: 500.0 mg/kg/injection, schedule: Q01DX Z (sc), vehicle: steriod suspending solution) was 111 % of control; the T/C (endpoint: median survival time, dose: 833.0 mg/kg/injection, schedule: Q01DX Z (sc), vehicle: steriod suspending solution) was 100 % of control.

`CCCCCCCCCCCCCCCCNC(=S)N/N=C/c1ccccc1OC`: the T/C by setting is: (endpoint: median survival time, dose: 78.0 mg/kg/injection, schedule: Q01DX Z (sc), vehicle: water) 100 % of control; (endpoint: median survival time, dose: 130.0 mg/kg/injection, schedule: Q01DX Z (sc), vehicle: water) 105 % of control; (endpoint: median survival time, dose: 216.0 mg/kg/injection, schedule: Q01DX Z (sc), vehicle: water) 111 % of control; (endpoint: median survival time, dose: 360.0 mg/kg/injection, schedule: Q01DX Z (sc), vehicle: water) 105 % of control; (endpoint: median survival time, dose: 600.0 mg/kg/injection, schedule: Q01DX Z (sc), vehicle: water) 100 % of control.

For the compound `CC[C@]1(O)C[C@H]2CN(CCc3c([nH]c4ccccc34)[C@@](C(=O)OC)(c3cc4c(cc3OC)N(C=O)[C@H]3[C@@](O)(C(=O)OC)[C@H](OC(C)=O)[C@]5(CC)C=CCN6CC[C@]43[C@@H]65)C2)C1`, the T/C was 100 % of control and 101 % of control (endpoint: median survival time, dose: 0.25 mg/kg/injection, schedule: Q01DX001 (sc), vehicle: water); 104 % of control and 105 % of control (endpoint: median survival time, dose: 0.5 mg/kg/injection, schedule: Q01DX001 (sc), vehicle: water); 116 % of control (endpoint: median survival time, dose: 0.65 mg/kg/injection, schedule: Q01DX Z (oral), vehicle: water); 111 % of control (endpoint: median survival time, dose: 1.0 mg/kg/injection, schedule: Q01DX001 (sc), vehicle: water); 122 % of control (endpoint: median survival time, dose: 1.08 mg/kg/injection, schedule: Q01DX Z (oral), vehicle: water); 111 % of control (endpoint: median survival time, dose: 1.08 mg/kg/injection, schedule: Q02DX Z (sc), vehicle: water). The T/C (endpoint: median survival time, dose: 1.8 mg/kg/injection, schedule: Q01DX Z (oral), vehicle: water) was 100 % of control; the T/C (endpoint: median survival time, dose: 1.8 mg/kg/injection, schedule: Q02DX Z (sc), vehicle: water) is 122 % of control; the T/C (endpoint: median survival time, dose: 2.0 mg/kg/injection, schedule: Q01DX001 (sc), vehicle: water) was 120 % of control and 122 % of control; the T/C (endpoint: median survival time, dose: 3.0 mg/kg/injection, schedule: Q01DX Z (oral), vehicle: water) was 100 % of control; the T/C (endpoint: median survival time, dose: 3.0 mg/kg/injection, schedule: Q02DX Z (sc), vehicle: water) is 122 % of control; the T/C (endpoint: median survival time, dose: 5.0 mg/kg/injection, schedule: Q01DX Z (oral), vehicle: water) was 100 % of control. The T/C was 116 % of control (endpoint: median survival time, dose: 5.0 mg/kg/injection, schedule: Q02DX Z (sc), vehicle: water) and 100 % of control (endpoint: median survival time, dose: 8.4 mg/kg/injection, schedule: Q02DX Z (sc), vehicle: water).

In the case of `Cc1cc2nc3c(=O)[nH]c(=O)nc-3n(CC(O)C(O)C(O)C(O)CO)c2cc1C` (stereo unspecified), the T/C was 100 % of control (endpoint: median survival time, dose: 180.0 mg/kg/injection, schedule: Q01DX Z (sc), vehicle: methylcellulose (MC)); 100 % of control (endpoint: median survival time, dose: 300.0 mg/kg/injection, schedule: Q01DX Z (sc), vehicle: methylcellulose (MC)); 100 % of control (endpoint: median survival time, dose: 500.0 mg/kg/injection, schedule: Q01DX Z (sc), vehicle: methylcellulose (MC)).

For `Cc1cccc2c(Nc3ccc(NS(C)(=O)=O)cc3)c3ccccc3nc12`, the T/C is, setting by setting: (endpoint: mean survival time, dose: 10.0 mg/kg/injection, schedule: Q01DX009 (ip), vehicle: saline) 103 % of control; (endpoint: mean survival time, dose: 20.0 mg/kg/injection, schedule: Q01DX009 (ip), vehicle: saline) 107 % of control; (endpoint: mean survival time, dose: 40.0 mg/kg/injection, schedule: Q01DX009 (ip), vehicle: saline) 106 % of control; (endpoint: mean survival time, dose: 80.0 mg/kg/injection, schedule: Q01DX009 (ip), vehicle: saline) 100 % of control; (endpoint: median survival time, dose: 10.0 mg/kg/injection, schedule: Q01DX009 (ip), vehicle: saline with Tween-80) 106 % of control; (endpoint: median survival time, dose: 20.0 mg/kg/injection, schedule: Q01DX009 (ip), vehicle: saline with Tween-80) 112 % of control.
